Assays:
Test in all cases: PathHunter β-arrestin GpcrMAX assay
Format in all cases: cell-based
MC3R = biological target: T1, MC3R (Homo sapiens, UniProt P41968)
T1 construct: purchased DiscoveRx (Eurofins) gpcrMAX PathHunter β-arrestin panel
Protocol: (§1) GpcrMAX panel biosensor assays were used to characterize taveuniamide F (4, 20 µM) (agonist and antagonist mode). The experiments were carried out by DiscoveRx Corporation (Fremont, CA, USA) as described before, using PathHunter β-arrestin enzyme fragment complementation (EFC) technology.

BDKRB2 = BDKRB2 (Homo sapiens, UniProt P30411)
Protocol: as §1

EDG7 = biological target: T2, EDG7 (Homo sapiens, UniProt Q9UBY5)
T2 construct: purchased DiscoveRx (Eurofins) gpcrMAX PathHunter β-arrestin panel
Protocol: as §1

EDG5 = biological target: T3, EDG5 (Homo sapiens, UniProt O95136)
T3 construct: purchased DiscoveRx (Eurofins) gpcrMAX PathHunter β-arrestin panel
Protocol: as §1

CCKBR = biological target: T4, CCKBR (Homo sapiens, UniProt P32239)
T4 construct: purchased DiscoveRx (Eurofins) gpcrMAX PathHunter β-arrestin panel
Protocol: as §1

MTNR1A = biological target: T5, MTNR1A (Homo sapiens, UniProt P48039)
T5 construct: purchased DiscoveRx (Eurofins) gpcrMAX PathHunter β-arrestin panel
Protocol: as §1

CXCR5 = biological target: T6, CXCR5 (Homo sapiens, UniProt P32302)
T6 construct: purchased DiscoveRx (Eurofins) gpcrMAX PathHunter β-arrestin panel
Protocol: as §1

HRH2 = biological target: T7, HRH2 (Homo sapiens, UniProt P25021)
T7 construct: purchased DiscoveRx (Eurofins) gpcrMAX PathHunter β-arrestin panel
Protocol: as §1

ADRA1B = biological target: T8, ADRA1B (Homo sapiens, UniProt P35368)
T8 construct: purchased DiscoveRx (Eurofins) gpcrMAX PathHunter β-arrestin panel
Protocol: as §1

NPBWR2 = biological target: T9, NPBWR2 (Homo sapiens, UniProt P48146)
T9 construct: purchased DiscoveRx (Eurofins) gpcrMAX PathHunter β-arrestin panel
Protocol: as §1

CXCR3 = biological target: T10, CXCR3 (Homo sapiens, UniProt P49682)
T10 construct: purchased DiscoveRx (Eurofins) gpcrMAX PathHunter β-arrestin panel
Protocol: as §1

NMU1R = biological target: T11, NMU1R (Homo sapiens, UniProt Q9HB89)
T11 construct: purchased DiscoveRx (Eurofins) gpcrMAX PathHunter β-arrestin panel
Protocol: as §1

OPRD1 = biological target: T12, OPRD1 (Homo sapiens, UniProt P41143)
T12 construct: purchased DiscoveRx (Eurofins) gpcrMAX PathHunter β-arrestin panel
Protocol: as §1

GPR92 = biological target: T13, GPR92 (Homo sapiens, UniProt Q9H1C0)
T13 construct: purchased DiscoveRx (Eurofins) gpcrMAX PathHunter β-arrestin panel
Protocol: as §1

TACR2 = biological target: T14, TACR2 (Homo sapiens, UniProt P21452)
T14 construct: purchased DiscoveRx (Eurofins) gpcrMAX PathHunter β-arrestin panel
Protocol: as §1

NPFFR1 = biological target: T15, NPFFR1 (Homo sapiens, UniProt Q9GZQ6)
T15 construct: purchased DiscoveRx (Eurofins) gpcrMAX PathHunter β-arrestin panel
Protocol: as §1

DRD3 = biological target: T16, DRD3 (Homo sapiens, UniProt P35462)
T16 construct: purchased DiscoveRx (Eurofins) gpcrMAX PathHunter β-arrestin panel
Protocol: as §1

GHSR = biological target: T17, GHSR (Homo sapiens, UniProt Q92847)
T17 construct: purchased DiscoveRx (Eurofins) gpcrMAX PathHunter β-arrestin panel
Protocol: as §1

ADCYAP1R1 = biological target: T18, ADCYAP1R1 (Homo sapiens, UniProt P41586)
T18 construct: purchased DiscoveRx (Eurofins) gpcrMAX PathHunter β-arrestin panel
Protocol: as §1

BDKRB1 = BDKRB1 (Homo sapiens, UniProt P46663)
Protocol: as §1

CHRM1 = biological target: T19, CHRM1 (Homo sapiens, UniProt P11229)
T19 construct: purchased DiscoveRx (Eurofins) gpcrMAX PathHunter β-arrestin panel
Protocol: as §1

P2RY12 = biological target: T20, P2RY12 (Homo sapiens, UniProt Q9H244)
T20 construct: purchased DiscoveRx (Eurofins) gpcrMAX PathHunter β-arrestin panel
Protocol: as §1

SSTR1 = biological target: T21, SSTR1 (Homo sapiens, UniProt P30872)
T21 construct: purchased DiscoveRx (Eurofins) gpcrMAX PathHunter β-arrestin panel
Protocol: as §1

GPR109B = biological target: T22, GPR109B (Homo sapiens, UniProt P49019)
T22 construct: purchased DiscoveRx (Eurofins) gpcrMAX PathHunter β-arrestin panel
Protocol: as §1

P2RY4 = biological target: T23, P2RY4 (Homo sapiens, UniProt P51582)
T23 construct: purchased DiscoveRx (Eurofins) gpcrMAX PathHunter β-arrestin panel
Protocol: as §1

LTB4R = biological target: T24, LTB4R (Homo sapiens, UniProt Q15722)
T24 construct: purchased DiscoveRx (Eurofins) gpcrMAX PathHunter β-arrestin panel
Protocol: as §1

PTAFR = biological target: T25, PTAFR (Homo sapiens, UniProt P25105)
T25 construct: purchased DiscoveRx (Eurofins) gpcrMAX PathHunter β-arrestin panel
Protocol: as §1

GPR109A = biological target: T26, GPR109A (Homo sapiens, UniProt Q8TDS4)
T26 construct: purchased DiscoveRx (Eurofins) gpcrMAX PathHunter β-arrestin panel
Protocol: as §1

EDG3 = biological target: T27, EDG3 (Homo sapiens, UniProt Q99500)
T27 construct: purchased DiscoveRx (Eurofins) gpcrMAX PathHunter β-arrestin panel
Protocol: as §1

CCR2 = biological target: T28, CCR2 (Homo sapiens, UniProt P41597)
T28 construct: purchased DiscoveRx (Eurofins) gpcrMAX PathHunter β-arrestin panel
Protocol: as §1

CHRM5 = biological target: T29, CHRM5 (Homo sapiens, UniProt P08912)
T29 construct: purchased DiscoveRx (Eurofins) gpcrMAX PathHunter β-arrestin panel
Protocol: as §1

TBXA2R = biological target: T30, TBXA2R (Homo sapiens, UniProt P21731)
T30 construct: purchased DiscoveRx (Eurofins) gpcrMAX PathHunter β-arrestin panel
Protocol: as §1

GALR1 = biological target: T31, GALR1 (Homo sapiens, UniProt P47211)
T31 construct: purchased DiscoveRx (Eurofins) gpcrMAX PathHunter β-arrestin panel
Protocol: as §1

MRGPRX2 = biological target: T32, MRGPRX2 (Homo sapiens, UniProt Q96LB1)
T32 construct: purchased DiscoveRx (Eurofins) gpcrMAX PathHunter β-arrestin panel
Protocol: as §1

CXCR4 = biological target: T33, CXCR4 (Homo sapiens, UniProt P61073)
T33 construct: purchased DiscoveRx (Eurofins) gpcrMAX PathHunter β-arrestin panel
Protocol: as §1

ADRB2 = ADRB2 (Homo sapiens, UniProt P07550)
Protocol: as §1

VIPR1 = biological target: T34, VIPR1 (Homo sapiens, UniProt P32241)
T34 construct: purchased DiscoveRx (Eurofins) gpcrMAX PathHunter β-arrestin panel
Protocol: as §1

VIPR2 = biological target: T35, VIPR2 (Homo sapiens, UniProt P41587)
T35 construct: purchased DiscoveRx (Eurofins) gpcrMAX PathHunter β-arrestin panel
Protocol: as §1

CALCR-RAMP3 = CALCR-RAMP3 (Homo sapiens, UniProt O60896+P30988)
Protocol: as §1

CALCRL-RAMP1 = CALCRL-RAMP1 (Homo sapiens, UniProt O60894+Q16602)
Protocol: as §1

PROKR1 = biological target: T36, PROKR1 (Homo sapiens, UniProt Q8TCW9)
T36 construct: purchased DiscoveRx (Eurofins) gpcrMAX PathHunter β-arrestin panel
Protocol: as §1

OPRM1 = biological target: T37, OPRM1 (Homo sapiens, UniProt P35372)
T37 construct: purchased DiscoveRx (Eurofins) gpcrMAX PathHunter β-arrestin panel
Protocol: as §1

T3 sequence (O95136 whole entry): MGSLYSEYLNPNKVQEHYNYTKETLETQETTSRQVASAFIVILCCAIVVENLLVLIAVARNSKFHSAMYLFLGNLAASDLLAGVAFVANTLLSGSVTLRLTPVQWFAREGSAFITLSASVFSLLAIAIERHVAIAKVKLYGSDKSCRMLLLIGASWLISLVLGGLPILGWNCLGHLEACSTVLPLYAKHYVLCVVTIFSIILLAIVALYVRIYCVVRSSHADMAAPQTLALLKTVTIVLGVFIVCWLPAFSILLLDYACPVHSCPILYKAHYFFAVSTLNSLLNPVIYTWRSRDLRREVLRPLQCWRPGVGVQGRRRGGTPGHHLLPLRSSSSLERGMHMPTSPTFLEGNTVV
T23 sequence (P51582 whole entry): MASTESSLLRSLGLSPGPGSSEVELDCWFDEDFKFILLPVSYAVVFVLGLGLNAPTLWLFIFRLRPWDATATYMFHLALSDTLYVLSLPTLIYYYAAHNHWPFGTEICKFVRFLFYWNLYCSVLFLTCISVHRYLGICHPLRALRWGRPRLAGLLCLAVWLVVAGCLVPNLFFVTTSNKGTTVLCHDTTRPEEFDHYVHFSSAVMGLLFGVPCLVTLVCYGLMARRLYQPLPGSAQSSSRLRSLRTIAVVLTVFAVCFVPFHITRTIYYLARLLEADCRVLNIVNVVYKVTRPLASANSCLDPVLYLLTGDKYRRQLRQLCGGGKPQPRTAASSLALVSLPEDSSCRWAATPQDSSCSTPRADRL
T37 sequence (P35372 whole entry): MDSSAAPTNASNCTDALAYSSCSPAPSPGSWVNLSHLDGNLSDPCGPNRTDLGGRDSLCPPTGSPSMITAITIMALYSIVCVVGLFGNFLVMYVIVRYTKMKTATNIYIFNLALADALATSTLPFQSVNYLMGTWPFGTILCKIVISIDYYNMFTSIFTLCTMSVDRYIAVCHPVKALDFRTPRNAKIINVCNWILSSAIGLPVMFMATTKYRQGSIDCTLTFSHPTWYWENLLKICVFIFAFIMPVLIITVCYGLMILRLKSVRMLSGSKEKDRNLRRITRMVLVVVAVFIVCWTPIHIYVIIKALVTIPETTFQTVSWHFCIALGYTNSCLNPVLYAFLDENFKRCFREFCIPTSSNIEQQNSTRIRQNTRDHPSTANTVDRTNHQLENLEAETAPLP
T7 sequence (P25021 whole entry): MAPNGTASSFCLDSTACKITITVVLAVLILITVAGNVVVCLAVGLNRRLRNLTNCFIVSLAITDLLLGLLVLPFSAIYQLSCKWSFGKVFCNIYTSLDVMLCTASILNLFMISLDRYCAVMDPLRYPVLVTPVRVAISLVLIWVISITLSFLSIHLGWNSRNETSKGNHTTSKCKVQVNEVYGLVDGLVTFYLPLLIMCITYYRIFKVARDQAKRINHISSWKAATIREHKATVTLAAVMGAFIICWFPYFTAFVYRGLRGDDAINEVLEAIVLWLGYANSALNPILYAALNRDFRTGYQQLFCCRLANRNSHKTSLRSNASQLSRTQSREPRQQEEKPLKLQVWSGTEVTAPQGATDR
Sequence of BDKRB1 (P46663 whole entry): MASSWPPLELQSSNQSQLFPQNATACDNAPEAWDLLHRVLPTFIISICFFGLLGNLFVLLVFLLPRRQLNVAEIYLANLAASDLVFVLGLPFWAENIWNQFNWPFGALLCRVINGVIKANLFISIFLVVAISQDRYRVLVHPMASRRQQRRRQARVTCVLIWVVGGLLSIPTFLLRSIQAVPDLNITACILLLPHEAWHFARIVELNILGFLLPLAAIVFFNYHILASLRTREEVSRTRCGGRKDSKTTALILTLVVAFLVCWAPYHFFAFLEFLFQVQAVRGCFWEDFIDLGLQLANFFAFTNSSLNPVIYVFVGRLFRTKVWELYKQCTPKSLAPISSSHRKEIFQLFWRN
T18 sequence (P41586 21-468): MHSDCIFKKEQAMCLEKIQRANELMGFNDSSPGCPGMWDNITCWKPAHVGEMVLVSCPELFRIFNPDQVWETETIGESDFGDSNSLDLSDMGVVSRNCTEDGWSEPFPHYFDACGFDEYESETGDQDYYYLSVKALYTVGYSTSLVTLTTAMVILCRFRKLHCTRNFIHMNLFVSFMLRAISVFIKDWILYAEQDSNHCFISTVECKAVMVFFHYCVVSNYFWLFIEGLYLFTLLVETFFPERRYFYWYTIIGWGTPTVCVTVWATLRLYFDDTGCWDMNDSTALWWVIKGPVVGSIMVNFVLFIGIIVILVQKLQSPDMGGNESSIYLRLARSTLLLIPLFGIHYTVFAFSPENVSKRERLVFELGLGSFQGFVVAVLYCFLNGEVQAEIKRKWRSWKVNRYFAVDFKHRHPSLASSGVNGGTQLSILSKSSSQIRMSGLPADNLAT
T21 sequence (P30872 whole entry): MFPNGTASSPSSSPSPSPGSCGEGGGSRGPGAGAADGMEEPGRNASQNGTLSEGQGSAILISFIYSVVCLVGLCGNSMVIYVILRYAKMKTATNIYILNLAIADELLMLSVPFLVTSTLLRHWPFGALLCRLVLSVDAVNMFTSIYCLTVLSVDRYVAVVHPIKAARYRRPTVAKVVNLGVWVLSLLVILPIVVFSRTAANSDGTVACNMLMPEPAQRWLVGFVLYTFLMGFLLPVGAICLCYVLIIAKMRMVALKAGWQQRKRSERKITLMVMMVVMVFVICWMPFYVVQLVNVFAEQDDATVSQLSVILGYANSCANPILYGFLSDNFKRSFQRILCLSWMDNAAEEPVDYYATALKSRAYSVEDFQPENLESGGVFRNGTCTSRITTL
T4 sequence (P32239 whole entry): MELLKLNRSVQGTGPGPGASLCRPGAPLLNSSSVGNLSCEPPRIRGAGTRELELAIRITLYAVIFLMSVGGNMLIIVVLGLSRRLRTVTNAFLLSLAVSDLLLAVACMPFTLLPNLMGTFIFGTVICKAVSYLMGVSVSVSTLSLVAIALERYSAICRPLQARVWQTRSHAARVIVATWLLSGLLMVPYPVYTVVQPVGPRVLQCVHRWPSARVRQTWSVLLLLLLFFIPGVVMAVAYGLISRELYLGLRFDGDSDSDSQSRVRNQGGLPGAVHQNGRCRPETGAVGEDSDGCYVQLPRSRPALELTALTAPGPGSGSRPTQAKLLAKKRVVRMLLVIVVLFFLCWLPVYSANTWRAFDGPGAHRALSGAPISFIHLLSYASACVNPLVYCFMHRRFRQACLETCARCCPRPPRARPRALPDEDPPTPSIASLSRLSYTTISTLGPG
T19 sequence (P11229 whole entry): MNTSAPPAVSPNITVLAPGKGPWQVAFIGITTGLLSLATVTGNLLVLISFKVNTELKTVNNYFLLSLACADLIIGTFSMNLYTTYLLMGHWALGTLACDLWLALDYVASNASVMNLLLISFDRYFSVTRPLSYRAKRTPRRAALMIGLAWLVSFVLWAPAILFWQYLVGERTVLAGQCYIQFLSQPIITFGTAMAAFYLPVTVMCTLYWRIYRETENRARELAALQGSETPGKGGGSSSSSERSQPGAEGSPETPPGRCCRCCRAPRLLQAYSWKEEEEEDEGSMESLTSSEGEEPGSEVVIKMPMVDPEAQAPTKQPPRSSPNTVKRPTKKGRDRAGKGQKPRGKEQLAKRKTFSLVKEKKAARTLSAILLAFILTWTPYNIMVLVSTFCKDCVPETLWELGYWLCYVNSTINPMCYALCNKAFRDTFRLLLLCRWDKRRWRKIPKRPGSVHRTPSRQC
T16 sequence (P35462 whole entry): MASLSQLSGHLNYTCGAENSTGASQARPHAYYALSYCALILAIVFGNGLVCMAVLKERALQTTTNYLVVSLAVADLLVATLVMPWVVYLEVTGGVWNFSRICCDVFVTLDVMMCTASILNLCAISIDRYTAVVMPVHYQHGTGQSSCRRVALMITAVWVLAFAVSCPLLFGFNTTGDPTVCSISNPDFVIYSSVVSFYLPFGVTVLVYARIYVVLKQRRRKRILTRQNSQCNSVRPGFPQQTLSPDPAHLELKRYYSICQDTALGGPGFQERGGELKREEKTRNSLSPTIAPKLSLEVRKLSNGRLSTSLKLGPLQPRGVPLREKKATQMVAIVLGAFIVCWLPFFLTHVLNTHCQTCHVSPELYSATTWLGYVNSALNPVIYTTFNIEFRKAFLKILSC
T32 sequence (Q96LB1 whole entry): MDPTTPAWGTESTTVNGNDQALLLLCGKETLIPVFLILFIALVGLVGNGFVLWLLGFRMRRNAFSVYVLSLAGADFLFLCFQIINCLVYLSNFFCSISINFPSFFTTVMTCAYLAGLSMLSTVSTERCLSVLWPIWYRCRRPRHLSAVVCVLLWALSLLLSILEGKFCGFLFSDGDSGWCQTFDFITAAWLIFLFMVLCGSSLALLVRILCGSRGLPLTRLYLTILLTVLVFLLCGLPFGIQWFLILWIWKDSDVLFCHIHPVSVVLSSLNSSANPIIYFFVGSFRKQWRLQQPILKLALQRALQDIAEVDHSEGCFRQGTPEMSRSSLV
T24 sequence (Q15722 whole entry): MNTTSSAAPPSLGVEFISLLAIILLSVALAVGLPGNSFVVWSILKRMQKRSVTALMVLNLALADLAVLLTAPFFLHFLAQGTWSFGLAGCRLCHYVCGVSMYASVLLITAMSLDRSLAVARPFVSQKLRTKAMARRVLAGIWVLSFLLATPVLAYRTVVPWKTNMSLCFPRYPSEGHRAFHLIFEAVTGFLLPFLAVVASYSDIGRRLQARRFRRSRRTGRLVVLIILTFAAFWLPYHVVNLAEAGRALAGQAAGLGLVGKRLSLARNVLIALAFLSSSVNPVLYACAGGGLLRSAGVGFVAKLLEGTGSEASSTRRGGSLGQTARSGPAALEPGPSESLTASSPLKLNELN

inhibition at 20 µM (MC3R): 19.7% | inhibition at 20 µM (BDKRB2): 8.4% | inhibition at 20 µM (EDG7): 38.6% | inhibition at 20 µM (EDG5): 0.8% | inhibition at 20 µM (CCKBR): 10.2% | inhibition at 20 µM (MTNR1A): 20.2% | inhibition at 20 µM (CXCR5): 5.1% | inhibition at 20 µM (HRH2): 24.1% | inhibition at 20 µM (ADRA1B): 22.9% | inhibition at 20 µM (NPBWR2): 13.7% | inhibition at 20 µM (CXCR3): 4.6% | inhibition at 20 µM (NMU1R): 30.1% | inhibition at 20 µM (OPRD1): 7.2% | inhibition at 20 µM (GPR92): 56.5% | inhibition at 20 µM (TACR2): 59.3% | inhibition at 20 µM (NPFFR1): 27.9% | inhibition at 20 µM (DRD3): 9.6% | inhibition at 20 µM (GHSR): 30.8% | inhibition at 20 µM (ADCYAP1R1): 16.5% | inhibition at 20 µM (BDKRB1): 26.2% | inhibition at 20 µM (CHRM1): 21.8% | inhibition at 20 µM (P2RY12): 1.4% | inhibition at 20 µM (SSTR1): 38.2% | inhibition at 20 µM (GPR109B): 36.1% | inhibition at 20 µM (P2RY4): 68.8% | inhibition at 20 µM (LTB4R): 4.6% | inhibition at 20 µM (PTAFR): 14.3% | inhibition at 20 µM (GPR109A): 5.5% | inhibition at 20 µM (EDG3): 21% | inhibition at 20 µM (CCR2): -1.7% | inhibition at 20 µM (CHRM5): 31.6% | inhibition at 20 µM (TBXA2R): -4.4% | inhibition at 20 µM (GALR1): 5.7% | inhibition at 20 µM (MRGPRX2): 64.7% | inhibition at 20 µM (CXCR4): 43.8% | inhibition at 20 µM (ADRB2): 25.3% | inhibition at 20 µM (VIPR1): -2.9% | inhibition at 20 µM (VIPR2): 4.6% | inhibition at 20 µM (CALCR-RAMP3): 3.1% | inhibition at 20 µM (CALCRL-RAMP1): 31.2% | inhibition at 20 µM (PROKR1): 37.6% | inhibition at 20 µM (OPRM1): -1%
Structure (SMILES): CC(=O)N[C@@H](CCCC#C/C=C/Cl)CCCCCCC(Cl)Cl [Compound 4, taveuniamide F]

From publication PMC10817531, “Chlorinated Enyne Fatty Acid Amides from a Marine Cyanobacterium: Discovery of Taveuniamides L-M and Pharmacological Characterization of Taveuniamide F as a GPCR Antagonist with CNR1 Selectivity” (Marine Drugs, 2023)
